Measured values: patent US20070191288A1, “Treatments for Benign Tumors, Cancers, Neoplasias, and/or Other Inflammatory Disorders or Diseases” (priority 2002, published 2007)

Tests used:
lipoma = assay: Effects of topiramate on lipoma in a dog; format: in vivo; conditions: 12-year-old female German Shorthaired Pointer (30.8 kg), large lipoma on right rib cage; topiramate 25 mg/day once per day, 59 days versus 24 days
Procedure: FIG. 1A, depicts the size of a lipoma on a dog treated with topiramate for 24 days. FIG. 1B illustrates the reduction in lipoma size on the dog after topiramate had been administered for 59 days (25 mg/day administered once per day).

[1] = tested on: simple and complex partial seizures and secondarily generalized seizures; conditions: clinical trials of human epilepsy; adjunctive therapy or monotherapy; cited from earlier work

SMILES: CC1(C)O[C@@H]2[C@@H](CO[C@@]3(COS(N)(=O)=O)OC(C)(C)O[C@@H]23)O1 [topiramate, 2,3:4,5-bis-O-(1-methylethylidene)-β-D-fructopyranose sulfamate]
- reduction in lipoma size/mass (lipoma): shrunk considerably
- efficacy in treating simple and complex partial seizures and secondarily generalized seizures [1]: effective
